A value given as a limit tells only on which side of the number the result lay.

Test [1] deals with murine bone marrow-derived macrophages. Kind of test: area under cytotoxicity dose-response curve (AUC (% cytotoxicity x dose, relative)); higher = more cytotoxic. The conditions noted are these: duration: 6 days; dose range: 0.13-80 uM, 8 points. Summed up: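 Primary murine bone marrow-derived macrophages in opaque 384-well plates were exposed to an 8-point, 2.5-fold dilution series (final 80–0.13 μM) for 6 days at 37 °C in 5% CO2. Viability was read with Promega's CellTiter-Glo luminescence assay, and percent cytotoxicity was normalised to vehicle and positive control wells. Cytotoxicity is reported as the area under the dose–response curve, calculated in GraphPad Prism version 10.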

Test [2] has as its system Mycobacterium tuberculosis CDC1551 (intracellular, in murine BMDM). Kind of test: area under intracellular growth-inhibition dose-response curve (AUC (% inhibition x dose, relative)); higher = more potent. The conditions noted are these: duration: 6 days; dose range: 0.13-80 uM, 8 points. Summed up:
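Macrophages derived from primary murine bone marrow were infected for 1 h at multiplicity of infection 1 with luciferase-expressing M. tuberculosis CDC1551, then treated for 6 days at final concentrations of 80–0.13 μM. Bright-Glo luciferin signal, normalised to a reference drug control and the lowest-concentration wells, gave the growth readout. Area under the growth-inhibition dose–response curve was then calculated in GraphPad Prism.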

Consider `COc1cc(/C=N/NC(=O)c2ccncc2)ccc1OCC(=O)Nc1ccccc1`, for which, in test [1], the “area under cytotoxicity dose-response curve” value is less than 0. In addition, the “area under intracellular growth-inhibition dose-response curve” value in test [2] turned out to be 232.

As for `Cc1cc(Cl)ccc1NC(=S)NCC(O)c1ccccc1` (centres undefined), the “area under cytotoxicity dose-response curve” value in test [1] is 76.6. Besides, the “area under intracellular growth-inhibition dose-response curve” value in test [2] was determined as 126.

Turning to `Cc1cc(O)c2c(n1)c(C)cc1[nH]c(C)c(C)c12`, the “area under cytotoxicity dose-response curve” value in test [1] is less than 0. In addition, the “area under intracellular growth-inhibition dose-response curve” value in test [2] amounted to 137.

Regarding `Nc1c2c(nc3sc4c(c13)CCCC4)CCCC2`, the “area under cytotoxicity dose-response curve” value in test [1] worked out at 77.7. The “area under intracellular growth-inhibition dose-response curve” value in test [2] was 125.

Regarding `Cc1cc(C(=O)NC2CCCCCCC2)ccc1[N+](=O)[O-]`, in test [1], the “area under cytotoxicity dose-response curve” value was less than 0. In addition, the “area under intracellular growth-inhibition dose-response curve” value in test [2] came out at 220.

Take `Cc1cc(OCC(=O)N2CCCC2)ccc1Cl`: in test [1], the “area under cytotoxicity dose-response curve” value was determined as 55.1. Also, the “area under intracellular growth-inhibition dose-response curve” value in test [2] was determined as 220.

With `C[C@H]1c2cccc(O)c2C(=O)C2C(=O)C3(O)C(=O)C(C(N)=O)C(=O)[C@@H](N(C)C)[C@@H]3[C@@H](O)[C@@H]21.Cl` (some centres undefined), the “area under cytotoxicity dose-response curve” value in test [1] is 33.4. Further, the “area under intracellular growth-inhibition dose-response curve” value in test [2] was determined as 259.

`Cc1ccc(C(=O)N2CCN(c3ccc(NC(=S)NC(=O)c4cccs4)cc3)CC2)cc1`: the “area under cytotoxicity dose-response curve” value in test [1] is less than 0. For the same compound, the “area under intracellular growth-inhibition dose-response curve” value in test [2] stood at 275.

Take `O=C(N/N=C/c1coc2ccccc2c1=O)c1ccncc1`: the “area under cytotoxicity dose-response curve” value in test [1] is less than 0. The “area under intracellular growth-inhibition dose-response curve” value in test [2] was 272.

With `CS(=O)(=O)c1ccc([C@@H](O)[C@@H](CF)NC(=O)C(Cl)Cl)cc1`, the “area under cytotoxicity dose-response curve” value in test [1] turned out to be 62.1. Besides, in test [2], the “area under intracellular growth-inhibition dose-response curve” value amounted to 78.9.

On to `CCN(CC)CCNc1nc(-c2ccc(OC)cc2)c(-c2ccc(OC)cc2)s1`, for which, in test [1], the “area under cytotoxicity dose-response curve” value worked out at 3.78. In addition, in test [2], the “area under intracellular growth-inhibition dose-response curve” value was 203.

`O=C(c1ccc(Cl)s1)N1CCN(c2ncccn2)CC1`: the “area under cytotoxicity dose-response curve” value in test [1] is 31.4. In addition, the “area under intracellular growth-inhibition dose-response curve” value in test [2] was found to be 86.8.

On to `Cc1cc(Cl)ccc1OCCCC(=O)NNC(=O)c1ccncc1`, for which, in test [1], the “area under cytotoxicity dose-response curve” value is less than 0. Further, the “area under intracellular growth-inhibition dose-response curve” value in test [2] is 271.

Consider `COc1ccc(S(=O)(=O)N2CCN(C(=O)C3CC(=O)N(c4ccccc4F)C3)CC2)cc1OC` (centres undefined), for which the “area under cytotoxicity dose-response curve” value in test [1] came to 27.9. Further, the “area under intracellular growth-inhibition dose-response curve” value in test [2] stood at 104.

For the compound `N#CCc1ccc(NC(=O)/C=C/c2ccc([N+](=O)[O-])o2)cc1`, in test [1], the “area under cytotoxicity dose-response curve” value was determined as 124. Further, the “area under intracellular growth-inhibition dose-response curve” value in test [2] was 35.

`COc1ccc(/C=N/Nc2nc(-c3ccc(C)cc3)c(NC(C)=O)s2)cc1`: in test [1], the “area under cytotoxicity dose-response curve” value was less than 0. Moreover, the “area under intracellular growth-inhibition dose-response curve” value in test [2] came to 272.

Take `Cc1cccc(NC(=O)COC(=O)CCc2c[nH]c3ccccc23)c1C`: the “area under cytotoxicity dose-response curve” value in test [1] came out at 28.4. In addition, in test [2], the “area under intracellular growth-inhibition dose-response curve” value was determined as 27.4.

As to `CCCCCCn1c(=O)c(C(=O)Nc2ncccc2C)c(O)c2ccccc21`, the “area under cytotoxicity dose-response curve” value in test [1] turned out to be 47.2. For the same compound, in test [2], the “area under intracellular growth-inhibition dose-response curve” value turned out to be 237.

Turning to `O=C(NCc1ccco1)c1csc2c1CCCCC2`, the “area under cytotoxicity dose-response curve” value in test [1] was determined as 55.5. The “area under intracellular growth-inhibition dose-response curve” value in test [2] turned out to be 212.

On to `Br.COc1ccc(C2=CSC(/N=C/c3ccc(F)cc3)=NN2)cc1`, for which, in test [1], the “area under cytotoxicity dose-response curve” value came out at 49.1. The “area under intracellular growth-inhibition dose-response curve” value in test [2] was found to be 182.

Regarding `CCOc1ccc(C(=O)CCC(=O)NNC(=O)c2ccncc2)cc1`, in test [1], the “area under cytotoxicity dose-response curve” value is 49. In addition, in test [2], the “area under intracellular growth-inhibition dose-response curve” value is 119.

On to `C/C(CC(=O)Nc1ccc(Cl)cc1Cl)=N\NC(=O)c1ccncc1`, for which the “area under cytotoxicity dose-response curve” value in test [1] is 46.2. Further, the “area under intracellular growth-inhibition dose-response curve” value in test [2] came to 270.

As for `Cc1cccc(OCCCC(=O)NNC(=O)c2ccncc2)c1`, the “area under cytotoxicity dose-response curve” value in test [1] is less than 0. The “area under intracellular growth-inhibition dose-response curve” value in test [2] turned out to be 224.

As to `COc1cc(C(=O)Nc2cc(S(=O)(=O)N3CCOCC3)ccc2N2CCOCC2)ccc1OC(F)F`, in test [1], the “area under cytotoxicity dose-response curve” value was less than 0. Besides, the “area under intracellular growth-inhibition dose-response curve” value in test [2] is 44.6.

Regarding `Cc1occc1C(=O)N/N=C/C=C/c1ccccc1`, the “area under cytotoxicity dose-response curve” value in test [1] is 60. For the same compound, the “area under intracellular growth-inhibition dose-response curve” value in test [2] was determined as 87.6.

Consider `CS(=O)(=O)N1CCN(C(=O)CCC2CCCC2)CC1`, for which, in test [1], the “area under cytotoxicity dose-response curve” value was 43.1. For the same compound, the “area under intracellular growth-inhibition dose-response curve” value in test [2] was found to be 159.

For `CCC(=O)NC(=S)Nc1ccc(NC(=O)c2ccccc2[N+](=O)[O-])cc1`, the “area under cytotoxicity dose-response curve” value in test [1] was 32.7. Moreover, the “area under intracellular growth-inhibition dose-response curve” value in test [2] was 267.

Consider `CC(=O)N1CCN(c2ccc(NC(=O)c3ccc([N+](=O)[O-])o3)cc2Cl)CC1`, for which the “area under cytotoxicity dose-response curve” value in test [1] stood at 88.8. Besides, the “area under intracellular growth-inhibition dose-response curve” value in test [2] stood at 49.4.

On to `Clc1ccc2nnc(Cl)n2n1`, for which the “area under cytotoxicity dose-response curve” value in test [1] came out at 54. Besides, the “area under intracellular growth-inhibition dose-response curve” value in test [2] amounted to 79.4.

For the compound `CCNc1nc(NCC)nc(N/N=C/c2ccc([N+](=O)[O-])o2)n1`, the “area under cytotoxicity dose-response curve” value in test [1] worked out at 18. The “area under intracellular growth-inhibition dose-response curve” value in test [2] turned out to be 266.

For the compound `CCOc1ccc(OCCCC(=O)NNC(=O)c2ccncc2)cc1`, the “area under cytotoxicity dose-response curve” value in test [1] is less than 0. Moreover, in test [2], the “area under intracellular growth-inhibition dose-response curve” value came out at 272.

For `Cc1ccc(C(=O)Sc2cccccc2=O)cc1`, the “area under cytotoxicity dose-response curve” value in test [1] came to 143. Also, the “area under intracellular growth-inhibition dose-response curve” value in test [2] was less than 0.

Regarding `COc1ccc(/C=N/NC(=O)c2ccncc2)cc1COc1ccc(NC(C)=O)cc1`, in test [1], the “area under cytotoxicity dose-response curve” value is 14.4. Further, in test [2], the “area under intracellular growth-inhibition dose-response curve” value came out at 272.

As to `COc1cc(/C=N/NC(=O)c2ccncc2)ccc1Oc1ccc([N+](=O)[O-])cn1`, the “area under cytotoxicity dose-response curve” value in test [1] was 71.3. In addition, the “area under intracellular growth-inhibition dose-response curve” value in test [2] is 194.

For `Cc1ccc(C)c(NC(=O)CN2C(=O)NC(C)(c3ccc4c(c3)OCCO4)C2=O)c1` (centres undefined), in test [1], the “area under cytotoxicity dose-response curve” value was 4.48. Moreover, the “area under intracellular growth-inhibition dose-response curve” value in test [2] was determined as 44.8.

Consider `C/C(CC(=O)Nc1ccc(N(C)C)cc1)=N\NC(=O)c1ccncc1`, for which the “area under cytotoxicity dose-response curve” value in test [1] was determined as 20.2. The “area under intracellular growth-inhibition dose-response curve” value in test [2] is 219.

With `COc1ccccc1C=NNC(=O)c1ccncc1`, the “area under cytotoxicity dose-response curve” value in test [1] came out at 9. Moreover, the “area under intracellular growth-inhibition dose-response curve” value in test [2] was found to be 266.

Consider `Cc1c(Cc2ccccc2)c(NCCCO)n2c(nc3ccccc32)c1C#N`, for which the “area under cytotoxicity dose-response curve” value in test [1] is less than 0. The “area under intracellular growth-inhibition dose-response curve” value in test [2] was found to be 148.

In the case of `CCN(CC)c1ccc(NC(=S)Nc2ccc(F)cc2)cc1`, the “area under cytotoxicity dose-response curve” value in test [1] was determined as 90.6. Besides, in test [2], the “area under intracellular growth-inhibition dose-response curve” value was found to be 106.

Consider `COc1ccccc1C(CNC(=O)c1ccc(-c2ccccc2Cl)o1)N1CCCC1` (centres undefined), for which the “area under cytotoxicity dose-response curve” value in test [1] was determined as 141. Further, the “area under intracellular growth-inhibition dose-response curve” value in test [2] came out at 164.

`COc1cc(/C=N/NC(N)=S)ccc1OC(=O)c1ccc(C)cc1`: in test [1], the “area under cytotoxicity dose-response curve” value is 23.5. Moreover, the “area under intracellular growth-inhibition dose-response curve” value in test [2] is 264.

Turning to `CN(C)[C@@H]1C(=O)C(C(N)=O)=C(O)[C@@]2(O)C(=O)C3=C(O)c4c(O)ccc(Cl)c4[C@@H](O)[C@H]3C[C@@H]12.Cl`, the “area under cytotoxicity dose-response curve” value in test [1] is less than 0. The “area under intracellular growth-inhibition dose-response curve” value in test [2] came out at 253.

On to `Cn1ccc(=Nc2ccc(NC(=O)c3ccc(/N=c4\ccn(C)c5ccc([N+](=O)[O-])cc45)cc3)cc2)cc1`, for which the “area under cytotoxicity dose-response curve” value in test [1] is 108. Also, the “area under intracellular growth-inhibition dose-response curve” value in test [2] was determined as 260.

As for `CC(NC(=O)Nc1ccc(Br)cc1)C(C)(C)C` (centres undefined), the “area under cytotoxicity dose-response curve” value in test [1] is 55.3. Further, the “area under intracellular growth-inhibition dose-response curve” value in test [2] came out at 228.

As for `O=C(CCN1C(=O)/C(=C/c2cccs2)SC1=S)Nc1ccc(C(=O)O)c(O)c1`, the “area under cytotoxicity dose-response curve” value in test [1] worked out at 68.2. Moreover, the “area under intracellular growth-inhibition dose-response curve” value in test [2] turned out to be 189.

With `Cc1cc(OCC(=O)NNC(=O)c2ccncc2)ccc1C(C)C`, the “area under cytotoxicity dose-response curve” value in test [1] was 34.5. The “area under intracellular growth-inhibition dose-response curve” value in test [2] was found to be 259.

With `CCNC(=S)N/N=C(\C)c1ccc(N2CCOCC2)cc1`, in test [1], the “area under cytotoxicity dose-response curve” value was determined as 43.5. For the same compound, the “area under intracellular growth-inhibition dose-response curve” value in test [2] worked out at 164.

Turning to `COc1ccc(OCCCC(=O)NNC(=O)c2ccncc2)cc1`, the “area under cytotoxicity dose-response curve” value in test [1] amounted to 6.62. Besides, the “area under intracellular growth-inhibition dose-response curve” value in test [2] stood at 227.

Turning to `Cc1ccc(C(=O)N2CCN(c3ccc(NC(=S)NC(=O)Cc4ccccc4)cc3)CC2)cc1`, the “area under cytotoxicity dose-response curve” value in test [1] turned out to be 53.7. In addition, the “area under intracellular growth-inhibition dose-response curve” value in test [2] stood at 212.

In the case of `CC1CCCN(c2ccc([N+](=O)[O-])s2)C1` (centres undefined), the “area under cytotoxicity dose-response curve” value in test [1] is less than 0. Besides, the “area under intracellular growth-inhibition dose-response curve” value in test [2] was 241.

Turning to `CCCN=C1C(=O)C2=C(C(O)=C1C)N1CC3NC3[C@@]1(OC)C2COC(N)=O` (some centres undefined), the “area under cytotoxicity dose-response curve” value in test [1] was 121. The “area under intracellular growth-inhibition dose-response curve” value in test [2] amounted to 166.

With `Cc1nnc(SCC(=O)NNC(=O)COc2ccc(Br)cc2)n1C`, the “area under cytotoxicity dose-response curve” value in test [1] was found to be 1.25. The “area under intracellular growth-inhibition dose-response curve” value in test [2] worked out at 68.9.

Values taken from the supplement of paper PMC11997997.
